The subject of this test is M-N#1 antibody binding to proteins in lysates from MT-450 cells. As to the kind of experiment: Competition of M-N#1 binding with fucose and galactose (immunoprecipitation). Set-up: species or system rat. To be noted: increasing amounts of sugar, lysates from radiolabelled MT-450 cells. On the procedure: Immunoprecipitation: cells were labeled by incubation with (^35S)L-methionine ([…]) in methionine-free RPMI medium supplemented with dialyzed FCS for 4 h. For a pulse-chase analysis, cells were incubated with (^35S)L-methionine ([…]) in methionine-free RPMI medium supplemented with dialyzed FCS for 15 minutes, then washed and incubated further with methionine-containing medium. For immunoprecipitations, cells were lyzed in RIPA (radioimmunoprecipitation) buffer, and aliquots were immunoprecipitated with 5 μg of antibodies. To purify proteins which bind to Ulex europaeus lectin, the cells were lyzed with PBS/1% NP40/1 mM PMSF and centrifuged, and the lysates were incubated with Ulex europaeus lectin beads at 4° C. for one hour. The beads were then washed three times with PBS, and the excess buffer was removed. The beads were boiled in 1% SDS/20 mM phosphate at pH 7.0. A 20-fold excess of RIPA buffer was then added, and the supernatant was used for the immunoprecipitation after removal of the Ulex europaeus lectin beads. In experiments in which immunoprecipitated proteins were treated with 0.5 U of N-glycosidase F, 2.5 mU of O-glycosidase or 5 mU of neuraminidase, the antigen-antibody matrix bead complex was initially washed in 100 mM phosphate buffer, pH 7.0. Buffer was removed and then the matrix beads were boiled in 5 μl of 1% SDS/20 mM phosphate, pH 7.0, for 5 minutes. The enzymes were then added in 45 μl of 20 mM phosphate buffer (pH 7.0)/1 mM CaSO4. The efficiency of the enzyme reaction was confirmed by comparison with similar digestive processes on immunoprecipitated CD44v4-v7 protein, which is digested by each of said enzymes. Immunoprecipitated proteins were removed by SDS (sodium dodecyl sulfate) PAGE (polyacrylamide gel electrophoresis). Gels were treated with PPO (2,5-diphenyloxazole) and exposed to X-ray sensitive film material.
Competition of M-N#1 binding with fucose and galactose. […]

Take `O=C[C@H](O)[C@@H](O)[C@@H](O)[C@H](O)CO` [D-galactose]: the “Effect on protein binding to M-N#1 antibody” value (from here on “Effect on protein binding”) is reported as “inhibited”.

As for `C[C@H](O)[C@@H](O)[C@@H](O)[C@H](O)C=O` [L-Fucose], the “Effect on protein binding” value is “no effect”.

As for `C[C@@H](O)[C@H](O)[C@H](O)[C@@H](O)C=O` [D-fucose], the “Effect on protein binding” value was “inhibited”.

The values above are taken from patent US6391301B1, “Agent for identifying and treating metastasizing tumors” (Forschungszentrum Karlsruhe GmbH, priority 1998, dated 2002).
